Laboratory results reported in paper PMC10895678 (Journal of Medicinal Chemistry, 2024).
Values after ≈ are worked out from the molar mass of the structure shown. Like-named read-outs stand apart in the source and are kept apart here.

What was measured:
[1] = molecular target: hERG (Homo sapiens, UniProt Q12809); test: cell-based; format: cell-based; conditions: for IC50: CHO cells expressing hERG, eight-point curve
Method: Compounds were solubilized to 30 mM in DMSO before dilution in PBS to […]. […] Eight-point concentration–response curves were generated using 3.16-fold serial dilutions from the top test concentration. Electrophysiological recordings were made from a Chinese Hamster Ovary cell line stably expressing the full length hERG channel. Single cell ionic currents were measured in the perforated patch clamp configuration (100 μg mL^–1 amphotericin) at room temperature (21–23 °C) using an IonWorks Quattro instrument (Molecular Devices). The internal solution contained (mM) 140 KCl, 1 MgCl2, 1 EGTA, and 20 HEPES and was buffered to pH 7.3. The external solution [PBS contained (mM): 138 NaCl, 2.7 KCl, 0.9 CaCl2, 0.5 MgCl2, 8 Na2HPO4, and 1.5 KH2PO4 buffered to pH 7.4]. Cells were clamped at a holding potential of −70 mV for 30 s and then stepped to +40 mV for one second. This was followed by a hyperpolarising step of 1 s to −30 mV to evoke the hERG tail current. Currents were measured from the tail step and referenced to the holding current. Compounds were then incubated for 3–4 min prior to a second measurement of the hERG signal using an identical pulsetrain.

[2] = system: M. tuberculosis H37Rv; test: MIC, resazurin microtiter assay (REMA), H37Rv; format: cell-based; conditions: Mycobacterium tuberculosis, drug-sensitive reference strain, read-out: M. tb H37Rv MIC99
Method: The previously described resazurin microtiter assay (REMA) plate method was used.[73],[74] Compounds were two-fold serially diluted in CAMR Mycobacterium Medium MOD2 (CMM MOD2).[75] Individual wells, in a 96-well plate, were inoculated with 1 × 10^6 CFU mL^–1 bacilli and incubated for 7 days at 37 °C with agitation (200 rpm). Following this, resazurin solution was added to wells (0.02% (w/v) in PBS pH 7.4, supplemented with 5% Tween 80).[76] The 96-well plates were incubated at room temperature for 6 h. The OD570nm of each well was recorded using a Tecan Sunrise plate reader. The minimum inhibitory concentration (MIC99) was calculated using a modified Gompertz function.[77] The optical density measurements for each drug concentration were compared to vehicle control to determine the percentage reduction in bacterial optical density.

[3] = Mouse microsomal clearance; format: in vitro ADME; conditions: 0.5 mg/mL mouse microsomes
Method: Compounds were solubilized (10 mM in DMSO). 1 μM of BGAz compound was incubated with 0.5 mg/mL mouse microsomes in the presence or absence of the Phase 1 cofactor NADPH (1 mM) at 37 °C for 0, 5, 10, 15, and 30 min. The disappearance of the BGAz compound was assessed by LC-MS/MS. All experiments were performed with two replicates per compound and were validated by the inclusion of up to three species-specific control compounds. Data output consists of mean intrinsic clearance (CLint) and half-life (t1/2) measurements.

[4] = system: BCG pTIC6-fbpB; format: cell-based, Mycobacterium bovis BCG
[5] = HepG2 mitochondrial dysfunction (Glu/Gal cytotoxicity, MTT); format: cell-based; conditions: human, HepG2 cells, 24 h, MTT
Method: Compounds were solubilized to 30 mM in DMSO. The BGAz compounds were added to the HepG2 cell model in a 96-well microplate in half log dilutions from 100–0.0003 μM (final DMSO concentration 0.3%) using both glucose (DMEM consisting of 25 mM glucose) and galactose (DMEM consisting of 10 mM galactose) media. The compounds were incubated with the cell line for 24 h at 37 °C in a humidified CO2 tissue culture incubator, followed by cell viability staining with MTT (3-(4,5-dimethylthiazol-2-yl)-2.5-diphenyltetrazolium bromide) conversion to the Formazan product, determined by absorbance measurement. The cell viability IC50 was determined in HepG2 glucose and metabolism-modified HepG2 galactose, and the fold change difference between the Glu/Gal IC50 was determined. All experiments were performed in duplicate with the mitochondrial toxicity controls rotenone and Antimycin A and the cytotoxin control tamoxifen.

[6] = system: BCG pTIC6-fbpC; format: cell-based, Mycobacterium bovis BCG
[7] = molecular target: CYP2C9 (Homo sapiens, UniProt P11712); test: biochemical; format: in vitro ADME; conditions: for IC50: human liver microsomes
Chain of CYP2C9 (P11712 whole entry): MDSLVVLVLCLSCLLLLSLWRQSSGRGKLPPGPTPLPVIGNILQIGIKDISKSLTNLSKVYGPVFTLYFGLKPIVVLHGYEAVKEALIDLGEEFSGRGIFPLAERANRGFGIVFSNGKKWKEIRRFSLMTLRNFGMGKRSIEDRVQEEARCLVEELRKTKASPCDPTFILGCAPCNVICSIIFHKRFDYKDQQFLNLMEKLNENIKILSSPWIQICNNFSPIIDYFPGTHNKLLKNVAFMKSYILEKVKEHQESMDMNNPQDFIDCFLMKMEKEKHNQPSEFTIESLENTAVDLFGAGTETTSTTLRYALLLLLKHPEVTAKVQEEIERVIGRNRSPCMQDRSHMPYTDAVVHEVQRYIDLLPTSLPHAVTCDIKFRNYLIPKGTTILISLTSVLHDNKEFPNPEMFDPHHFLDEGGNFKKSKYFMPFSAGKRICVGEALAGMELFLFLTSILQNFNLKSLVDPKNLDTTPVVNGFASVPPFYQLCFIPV
Method: (§1) Compounds were solubilized to 10 mM in DMSO. The BGAz compounds were incubated at concentrations of 0.003, 0.009, 0.03, 0.08, 0.25, 0.74, 2.2, 6.7, and 20 μM with CYP1A2, CYP2C9, CYP2C19, and CYP2D6 at 37 °C in the presence of the drug-like probe substrate […] the Phase 1 cofactor NADPH (1 mM). The formation of metabolites of the drug-like probe substrates in the absence and presence of the BGAz compound was monitored by LC-MS/MS, and the IC50 value was determined. All assays had two replicates per compound and included a positive control inhibitor.

[8] = molecular target: CYP2C19 (Homo sapiens, UniProt P33261); test: biochemical; format: in vitro ADME; conditions: for IC50 / CYP2C19 inhibition (in words): human liver microsomes
Chain of CYP2C19 (P33261 whole entry): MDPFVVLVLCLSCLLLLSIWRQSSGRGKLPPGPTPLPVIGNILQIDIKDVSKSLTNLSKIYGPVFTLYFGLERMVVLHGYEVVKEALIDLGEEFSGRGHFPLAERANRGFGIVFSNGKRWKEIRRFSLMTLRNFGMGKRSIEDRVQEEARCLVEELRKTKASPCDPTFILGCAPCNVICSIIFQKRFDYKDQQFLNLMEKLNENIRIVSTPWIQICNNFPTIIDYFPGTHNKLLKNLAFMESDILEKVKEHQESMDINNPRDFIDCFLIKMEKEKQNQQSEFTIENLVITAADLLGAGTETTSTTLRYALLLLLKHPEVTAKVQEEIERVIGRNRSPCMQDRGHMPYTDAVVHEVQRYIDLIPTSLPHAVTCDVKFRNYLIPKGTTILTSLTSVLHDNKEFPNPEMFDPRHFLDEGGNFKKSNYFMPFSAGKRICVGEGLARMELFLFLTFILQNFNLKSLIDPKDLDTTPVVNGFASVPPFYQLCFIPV
Method: as §1

[9] = molecular target: CYP2D6 (Homo sapiens, UniProt P10635); test: biochemical; format: in vitro ADME; conditions: human liver microsomes
Chain of CYP2D6 (P10635 whole entry): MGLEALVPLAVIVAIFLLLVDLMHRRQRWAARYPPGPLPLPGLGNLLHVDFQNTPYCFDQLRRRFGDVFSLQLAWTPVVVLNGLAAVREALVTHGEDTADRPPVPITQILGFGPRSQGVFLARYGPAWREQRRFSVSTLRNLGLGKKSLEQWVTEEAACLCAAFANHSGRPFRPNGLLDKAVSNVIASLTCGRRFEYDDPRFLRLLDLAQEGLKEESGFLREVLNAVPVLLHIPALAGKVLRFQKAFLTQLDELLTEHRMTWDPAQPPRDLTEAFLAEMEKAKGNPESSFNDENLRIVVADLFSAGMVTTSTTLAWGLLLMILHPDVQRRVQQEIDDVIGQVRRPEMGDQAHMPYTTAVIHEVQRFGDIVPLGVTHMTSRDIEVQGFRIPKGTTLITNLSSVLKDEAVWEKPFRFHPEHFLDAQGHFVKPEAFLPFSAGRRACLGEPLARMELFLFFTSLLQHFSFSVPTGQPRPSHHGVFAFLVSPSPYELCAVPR
Method: as §1

[10] = galactose medium, read-out: HepG2 Cytotoxicity IC50, Gal
[11] = glucose medium, read-out: HepG2 Cytotoxicity IC50, Glu
[12] = preincubated 30 min prior to NADPH, read-out: CYP2C9 [pre-inc] IC50
[13] = without pre-incubation, read-out: CYP2C9 IC50
[14] = preincubated 30 min prior to NADPH, read-out: CYP2C19 [pre-inc] IC50
[15] = without pre-incubation, read-out: CYP2C19 IC50
[16] = preincubated 30 min prior to NADPH, read-out: CYP2D6 [pre-inc] IC50
[17] = without pre-incubation, read-out: CYP2D6 IC50

Chain of hERG (Q12809 whole entry): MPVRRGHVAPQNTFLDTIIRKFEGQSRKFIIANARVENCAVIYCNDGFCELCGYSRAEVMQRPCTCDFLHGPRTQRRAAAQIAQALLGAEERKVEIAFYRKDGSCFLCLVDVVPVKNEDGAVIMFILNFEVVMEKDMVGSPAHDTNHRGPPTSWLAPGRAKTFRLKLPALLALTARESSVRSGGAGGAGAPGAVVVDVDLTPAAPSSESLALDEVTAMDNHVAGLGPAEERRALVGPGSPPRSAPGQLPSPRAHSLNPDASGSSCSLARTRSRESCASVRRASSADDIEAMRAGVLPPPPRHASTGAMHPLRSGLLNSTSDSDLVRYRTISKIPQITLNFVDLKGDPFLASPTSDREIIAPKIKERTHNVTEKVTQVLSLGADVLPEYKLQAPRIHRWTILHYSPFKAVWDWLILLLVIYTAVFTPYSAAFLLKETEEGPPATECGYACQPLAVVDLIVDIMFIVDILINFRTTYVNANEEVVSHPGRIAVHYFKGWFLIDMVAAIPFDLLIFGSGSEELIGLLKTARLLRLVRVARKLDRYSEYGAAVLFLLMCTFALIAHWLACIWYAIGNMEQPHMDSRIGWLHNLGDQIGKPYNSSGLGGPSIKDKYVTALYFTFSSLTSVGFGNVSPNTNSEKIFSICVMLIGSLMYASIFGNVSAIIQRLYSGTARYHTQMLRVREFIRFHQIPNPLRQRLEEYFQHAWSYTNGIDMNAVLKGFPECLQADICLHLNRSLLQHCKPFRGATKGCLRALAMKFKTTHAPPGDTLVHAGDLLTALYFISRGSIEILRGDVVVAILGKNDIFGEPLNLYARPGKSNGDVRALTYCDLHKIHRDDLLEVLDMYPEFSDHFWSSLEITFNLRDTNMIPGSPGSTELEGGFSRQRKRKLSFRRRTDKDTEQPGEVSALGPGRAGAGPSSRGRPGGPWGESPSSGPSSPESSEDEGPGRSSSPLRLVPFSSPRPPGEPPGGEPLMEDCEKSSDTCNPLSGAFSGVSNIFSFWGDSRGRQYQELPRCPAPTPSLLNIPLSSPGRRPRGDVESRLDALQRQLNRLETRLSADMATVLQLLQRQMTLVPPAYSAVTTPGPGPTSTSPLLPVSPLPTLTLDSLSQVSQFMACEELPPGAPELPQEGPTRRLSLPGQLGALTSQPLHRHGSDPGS

| SMILES | IC50 [1] [µM] | MIC99 [2] [µM] | microsomal CLint at 1 μM [3] [µL/min/mg] | BCG pTIC6-fbpB MIC [4] [µM] | increase in MIC upon overexpression of FbpB [4] | IC50 at 24 h [5, 10] [µM] | IC50 at 24 h [5, 11] [µM] | BCG pTIC6-fbpC MIC [6] [µM] | increase in MIC upon overexpression of FbpC [6] | IC50 [7, 12] [µM] | IC50 [7, 13] [µM] | IC50 [8, 14] [µM] | IC50 [8, 15] [µM] | CYP2D6 inhibition (in words) [9] | IC50 [9, 16] [nM] | IC50 [9, 17] [nM] | CYP2C19 inhibition (in words) [8] | other results |
| --- | --- | --- | --- | --- | --- | --- | --- | --- | --- | --- | --- | --- | --- | --- | --- | --- | --- | --- |
| Brc1cc(Br)cc(C2CC(CN3CCCC3)N2Cc2ccccc2Br)c1 (stereo not shown) [BGAz-004] | 25 | 3.3 (≈ 1.79 µg/mL) | 192 | 28 | two-fold increase | > 100 | > 100 | 34 | two-fold increase | 17.8 | > 20 | 2.04 | > 15.1 | significant inhibition | 1050 | 1970 | – | CYP2C9 inhibition (in words) ([7]; preincubated for 30 min prior to the addition of NADPH): minimal CYP2C9 inhibition; CYP2C19 inhibition (in words), preincubated ([8]; preincubated for 30 min prior to initiation of catalysis): strong inhibitory activity |
| FC(F)(F)Oc1ccc(C2CC(CN3CCCC3)N2Cc2ccccc2OC(F)(F)F)cc1 (stereo not shown) [BGAz-002] | – | 6.2 (≈ 2.94 µg/mL) | 166 | – | – | 65 | 38 | – | – | > 20 | > 20 | > 20 | > 20 | significant inhibition | 80 | 190 | negligible inhibition | IC50 ([1]; human, CHO cells stably expressing hERG, pH 7.4): > 167 µM; inhibition at 167 µM ([1]; human, pH 7.4, 167 μM, read-out: hERG inhibition at top test concentration): < 50% |
| CNCC1CC(c2ccc(OC(F)(F)F)cc2)N1Cc1ccccc1OC(F)(F)F (stereo not shown) [BGAz-005] | 12.7 | 7.2 (≈ 3.13 µg/mL) | 36 | 50 | two-fold increase | 23 | 21 | 50 | two-fold increase | > 20 | > 20 | 15.8 | > 20 | significant inhibition | 10 | 60 | negligible inhibition | – |
